From ChEMBL document CHEMBL5321287, “Discovery, Synthesis, and Evaluation of Novel Dual Inhibitors of a Vascular Endothelial Growth Factor Receptor and Poly(ADP-Ribose) Polymerase for BRCA Wild-Type Breast Cancer Therapy” (J Med Chem, 2023)
The source made the active and inactive calls. The calls are words filed in the database; no cut-off is given here.

Columns and labels:
MDA-MB-231 [1] = assay: Antiproliferative activity against human MDA-MB-231 cells assessed as cell growth inhibition
MDA-MB-231 [2] = assay: Antimigratory activity in human MDA-MB-231 cells assessed as upregulation of E-cadherin level at 4 uM in presence of 1:1 of compound:Olaparib by DAPI staining based immunofluorescence analysis; type: functional, cell-based
MCF7 [3] = assay: Induction of apoptosis in human MCF7 cells assessed as increase in cleaved caspase-3 level at 4 uM incubated for 2 days in presence of 1:1 of compound:Olaparib by immunoblot analysis; type: functional, cell-based; conditions: time 2.0 day
HCC1937 = assay: Antiproliferative activity against human HCC1937 cells assessed as cell growth inhibition
MDA-MB-231 [4] = assay: Induction of DNA damage in human MDA-MB-231 cells xenografted in BALB/c nude mouse assessed as increase in gamma-H2AX level at 50 mg/kg, po for 14 days in presence of 1:1 of compound:Olaparib by Western blot analysis; type: functional, organism-based; conditions: time 14.0 day
MDA-MB-231 [5] = assay: Induction of hypoxia in human MDA-MB-231 cells assessed as upregulation of HIF-1alpha level at 4 uM incubated for 2 days in presence 1:1 of Olaparib by Western blot analysis; type: functional, cell-based; conditions: time 2.0 day
MDA-MB-231 [6] = assay: Antimigratory activity in human MDA-MB-231 cells assessed as downregulation of MMP-2 level at 4 uM incubated for 2 days by immunoblot analysis; type: functional, cell-based; conditions: time 2.0 day
MDA-MB-231 [7] = assay: Induction of HR DNA repair in human MDA-MB-231 cells xenografted in BALB/c nude mouse assessed as decrease in BRCA1 level at 50 mg/kg, po for 14 days in presence of 1:1 of compound:Pazopanib by H and E staining based IHC analysis; type: functional, organism-based; conditions: time 14.0 day
MCF7 [8] = assay: Induction of HR DNA repair in human MCF7 cells assessed as decrease in RAD51 level at 4 uM incubated for 48 hrs by DAPI staining based immunofluorescence analysis; type: functional, cell-based
MCF7 [9] = assay: Antimigratory activity in human MCF7 cells assessed as downregulation of MMP-2 level at 4 uM by DAPI staining based immunofluorescence analysis; type: functional, cell-based
[10] = target: Vascular endothelial growth factor receptor 1 (Homo sapiens, UniProt P17948); assay: Inhibition of VEGFR1 phosphorylation at tyr1333 residue in human MDA-MB-231 cells xenografted in BALB/c nude mouse at 25 to 50 mg/kg, po for 14 days in presence of 1:1 of compound:Olaparib by Western blot analysis; type: organism-based; conditions: dose 25-50 mg/kg, time 14.0 day
Sequence of Vascular endothelial growth factor receptor 1 (P17948 whole entry): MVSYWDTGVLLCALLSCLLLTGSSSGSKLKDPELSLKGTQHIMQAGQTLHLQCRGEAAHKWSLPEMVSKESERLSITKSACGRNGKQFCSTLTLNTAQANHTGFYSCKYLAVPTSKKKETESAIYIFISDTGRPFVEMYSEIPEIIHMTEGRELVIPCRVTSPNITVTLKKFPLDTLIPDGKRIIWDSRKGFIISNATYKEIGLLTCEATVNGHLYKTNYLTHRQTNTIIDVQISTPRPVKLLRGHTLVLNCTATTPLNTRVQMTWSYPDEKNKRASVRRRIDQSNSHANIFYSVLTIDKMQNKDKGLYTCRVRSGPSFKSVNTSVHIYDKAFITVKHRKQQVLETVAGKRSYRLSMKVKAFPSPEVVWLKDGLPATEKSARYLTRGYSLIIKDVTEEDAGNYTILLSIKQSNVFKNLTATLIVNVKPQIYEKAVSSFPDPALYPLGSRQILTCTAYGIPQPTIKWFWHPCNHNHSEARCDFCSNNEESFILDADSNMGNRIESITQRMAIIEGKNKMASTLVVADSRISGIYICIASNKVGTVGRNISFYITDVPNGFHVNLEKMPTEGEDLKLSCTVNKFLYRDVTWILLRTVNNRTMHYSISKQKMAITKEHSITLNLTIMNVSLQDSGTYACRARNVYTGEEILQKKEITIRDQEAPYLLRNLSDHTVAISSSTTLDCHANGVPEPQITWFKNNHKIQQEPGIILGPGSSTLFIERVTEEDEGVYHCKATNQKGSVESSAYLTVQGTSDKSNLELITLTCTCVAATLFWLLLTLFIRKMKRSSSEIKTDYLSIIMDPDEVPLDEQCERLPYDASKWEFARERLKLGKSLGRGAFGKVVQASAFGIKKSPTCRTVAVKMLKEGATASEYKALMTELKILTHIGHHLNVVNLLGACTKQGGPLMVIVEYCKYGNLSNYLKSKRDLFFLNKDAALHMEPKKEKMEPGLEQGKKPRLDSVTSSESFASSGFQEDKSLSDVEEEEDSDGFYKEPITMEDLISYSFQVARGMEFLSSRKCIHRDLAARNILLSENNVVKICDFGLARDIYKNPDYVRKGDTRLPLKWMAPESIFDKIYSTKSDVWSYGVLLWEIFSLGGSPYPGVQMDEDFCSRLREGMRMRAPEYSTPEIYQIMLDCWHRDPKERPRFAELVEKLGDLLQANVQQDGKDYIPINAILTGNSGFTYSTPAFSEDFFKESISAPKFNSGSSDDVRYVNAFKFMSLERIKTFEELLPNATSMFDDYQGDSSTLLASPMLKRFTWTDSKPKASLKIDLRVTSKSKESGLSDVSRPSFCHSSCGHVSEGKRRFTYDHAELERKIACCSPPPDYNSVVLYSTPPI

MDA-MB-231 [11] = assay: Induction of HR DNA repair in human MDA-MB-231 cells xenografted in BALB/c nude mouse assessed as decrease in BRCA1 level at 50 mg/kg, po for 14 days in presence of 1:1 of compound:Olaparib by H and E staining based IHC analysis; type: functional, organism-based; conditions: time 14.0 day
MDA-MB-231 [12] = assay: Induction of DNA damage in human MDA-MB-231 cells assessed as increase in gamma-H2AX level at 4 uM incubated for 48 hrs by DAPI staining based immunofluorescence analysis; type: functional, cell-based
MDA-MB-231 [13] = assay: Antimetastatic activity against human MDA-MB-231 cells xenografted in lungs of BALB/c nude mouse assessed as decrease in lung metastatic nodules at 50 mg/kg administered once a day measured after 14 days in presence of 1:1 of compound:Olaparib by H and E staining based analysis; type: functional, organism-based; conditions: time 14.0 day

IC50 (MDA-MB-231 [1]): > 10 µM
IC50 (HCC1937): > 10 µM
inhibition [10]: Active
Structure (SMILES): Cc1ccc(Nc2nccc(N(C)c3ccc4c(C)n(C)nc4c3)n2)cc1S(N)(=O)=O [PAZOPANIB]
Activity (MDA-MB-231 [2]): Active
Activity (MCF7 [3]): Active
Activity (MDA-MB-231 [4]): Active
Activity (MDA-MB-231 [5]): Active
Activity (MDA-MB-231 [6]): Active
Activity (MDA-MB-231 [7]): Active
Activity (MCF7 [8]): Active
Activity (MCF7 [9]): Active
Activity (MDA-MB-231 [11]): Active
Activity (MDA-MB-231 [12]): Active
Activity (MDA-MB-231 [13]): Active
